# Assay results: US20230339937A1, “CONDENSED RING COMPOUNDS THAT INHIBIT H-PGDS” (SATO PHARMACEUTICAL CO., LTD., priority 2020, published 2023)
# Biological target: T1, Recombinant human H-PGDS (Homo sapiens, UniProt O60760)
# T1 construct: made in house; host or cells: E. coli
# Assay: H-PGDS inhibitory activity (prostaglandin D2 production from prostaglandin H2, measured by LC-MS/MS)
# Type: biochemical
# Details: recombinant human H-PGDS 1.0 nM expressed in E. coli; prostaglandin H2 25 μM; preincubated 15 minutes on ice, reacted on ice for 1 minute; concentration that inhibits prostaglandin D2 production by 50%
# In short: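 PGD2 formed from 25 µM prostaglandin H2 during a 1-min on-ice reaction was measured by LC-MS/MS after an FeCl2/citric acid stop. The enzyme was 1.0 nM E. coli-expressed human H-PGDS in Tris-HCl pH 8.0 buffer with MgCl2, reduced glutathione and γ-globulin, preincubated with compound for 15 min on ice. Production was normalised to DMSO controls minus the no-enzyme background.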
# T1 sequence (O60760 whole entry): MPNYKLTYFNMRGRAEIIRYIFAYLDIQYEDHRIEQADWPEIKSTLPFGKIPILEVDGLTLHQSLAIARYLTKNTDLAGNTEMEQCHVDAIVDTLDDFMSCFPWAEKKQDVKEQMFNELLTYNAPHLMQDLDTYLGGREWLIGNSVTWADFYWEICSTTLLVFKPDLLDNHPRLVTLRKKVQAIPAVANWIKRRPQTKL
row,Structure (SMILES),IC50
1,"O=C(Nc1ccccn1)c1ccc(-c2nccc3occc23)cc1 [Example 107, 4-(furo[3,2-c]pyridin-4-yl)-N-(pyridin-2-yl)benzamide]",19 nM
2,"CC(C)(O)[C@H]1CC[C@H](NC(=O)c2ccc(-c3nccc4occc34)cc2F)CC1 [Example 126, 2-fluoro-4-(furo[3,2-c]pyridin-4-yl)-N-[trans-4-(2-hydroxypropan-2-yl)cyclohexyl]benzamide]",13 nM
3,"O=C(N[C@H]1CC[C@H](CO)CC1)c1ccc(-c2nccc3[nH]ccc23)cc1 [Example 3, N-[trans-4-(hydroxymethyl)cyclohexyl]-4-(1H-pyrrolo[3,2-c]pyridin-4-yl)benzamide]",0.63 nM
4,"CC(N[C@H]1CC[C@H](NC(=O)c2ccc(-c3nccc4occc34)cc2)CC1)C(F)F (stereo partly drawn) [Example 302, N-{trans-4-[(1,1-difluoropropan-2-yl)amino]cyclohexyl}-4-(furo[3,2-c]pyridin-4-yl)benzamide]",3.2 nM
5,"CC(O)[C@@H]1CC[C@@H](NC(=O)c2ccc(-c3nccc4occc34)cc2)CO1 (stereo partly drawn) [Example 212, 4-(furo[3,2-c]pyridin-4-yl)-N-[(3R,6S)-6-(1-hydroxyethyl)tetrahydro-2 H-pyran-3-yl]benzamide]",3.8 nM
6,"C=Cc1cnc(-c2ccc(C(=O)N[C@H]3CC[C@H](C(C)(C)O)CC3)cc2)c2ccoc12 [Example 137, N-[trans-4-(2-hydroxypropan-2-yl)cyclohexyl]-4-(7-vinylfuro[3,2-c]pyridin-4-yl)benzamide]",12 nM
7,"CC(C)(O)[C@H]1CC[C@H](NC(=O)c2ccc(-c3ncc(C#N)c4occc34)cc2)CC1 [Example 139, 4-(7-cyanofuro[3,2-c]pyridin-4-yl)-N-[trans-4-(2-hydroxypropan-2-yl)cyclohexyl]benzamide]",251 nM
8,"NC(=O)C12CCC(NC(=O)c3ccc(-c4nccc5occc45)cc3)(CC1)CC2 [Example 352, 4-[4-(furo[3,2-c]pyridin-4-yl)benzamide]bicyclo[2.2.2]octane-1-carboxamide]",0.89 nM
9,"O=C(NC1CCc2ccccc21)c1ccc(-c2nccc3occc23)cc1 (stereo not shown) [Example 97, N-(2,3-dihydro-1H-inden-1-yl)-4-(furo[3,2-c]pyridin-4-yl)benzamide]",2.8 nM
10,"CC(C)(O)[C@H]1CC[C@H](NC(=O)c2ccc(-c3nccc4occc34)c(O)c2)CC1 [Example 134, 4-(furo[3,2-c]pyridin-4-yl)-3-hydroxy-N-[trans-4-(2-hydroxypropan-2-yl)cyclohexyl]benzamide]",6.6 nM
11,"O=C(NCC(O)CO)c1ccc(-c2nccc3[nH]ccc23)cc1 (stereo not shown) [Example 34, N-(2,3-dihydroxypropyl)-4-(1H-pyrrolo[3,2-c]pyridin-4-yl)benzamide]",2.4 nM
12,"O=C(NCc1cccnc1)c1ccc(-c2nccc3occc23)cc1 [Example 77, 4-(furo[3,2-c]pyridin-4-yl)-N-(pyridin-3-ylmethyl) benzamide]",24 nM
13,"COCCn1nc(C)c(CNC(=O)c2ccc(-c3nccc4[nH]ccc34)cc2)c1C [Example 45, N-{[1-(2-methoxyethyl)-3,5-dimethyl-1H-pyrazol-4-yl]methyl}-4-(1H-pyrrolo[3,2-c]pyridin-4-yl)benzamide]",0.91 nM
14,"CC(C)(O)[C@H]1CC[C@H](NC(=O)c2ccc(-c3nccc4[nH]ccc34)cc2)CC1 [Example 2, N-[trans-4-(2-hydroxypropan-2-yl)cyclohexyl]-4-(1H-pyrrolo[3,2-c]pyridin-4-yl)benzamide]",0.75 nM
15,"CCOCCNC(=O)c1ccc(-c2nccc3occc23)cc1 [Example 80, N-(2-ethoxyethyl)-4-(furo[3,2-c]pyridin-4-yl)benzamide]",32 nM
16,"O=C(NC[C@H]1C[C@@H](O)C1)c1ccc(-c2nccc3occc23)cc1 [Example 219, 4-(furo[3,2-c]pyridin-4-yl)-N-[(cis-3-hydroxycyclobutyl)methyl]benzamide]",12 nM
17,"O=C(N[C@H]1CC[C@H](N2CCCCC2=O)CC1)c1ccc(-c2nccc3occc23)cc1 [Example 300, 4-(furo[3,2-c]pyridin-4-yl)-N-[trans-4-(2-oxopiperidin-1-yl)cyclohexyl]benzamide]",4.7 nM
18,"CC1(C)CC(NC(=O)c2ccc(-c3nccc4occc34)cc2)CCC1O (stereo not shown) [Example 277, 4-(furo[3,2-c]pyridin-4-yl)-N-(4-hydroxy-3,3-dimethylcyclohexyl)benzamide]",3.5 nM
19,"Cc1cc2occc2c(-c2ccc(C(=O)N[C@H]3CC[C@H](NCC(F)F)CC3)cc2)n1 [Example 331, N-{trans-4-[(2,2-difluoroethyl)amino]cyclohexyl}-4-(6-methylfuro[3,2-c]pyridin-4-yl)benzamide]",1.8 nM
20,"O=C(NCC1CCCC1)c1ccc(-c2nccc3occc23)cc1 [Example 84, N-(cyclopenthyl-methyl)-4-(furo[3,2-c]pyridin-4-yl)benzamide]",14 nM
21,"Cn1ccnc1CNC(=O)c1ccc(-c2nccc3[nH]ccc23)cc1 [Example 52, N-[(1-methyl-1H-imidazol-2-yl)methyl]-4-(1H-pyrrolo[3,2-c]pyridin-4-yl)benzamide]",1.6 nM
22,"O=C(NCc1cccc(OC(F)F)c1)c1ccc(-c2nccc3[nH]ccc23)cc1 [Example 35, N-[3-(difluoromethoxy)benzyl]-4-(1H-pyrrolo[3,2-c]pyridin-4-yl)benzamide]",1.6 nM
23,"CO[C@H]1CN(c2ncc(CO)cn2)C[C@H]1NC(=O)c1ccc(-c2nccc3occc23)cc1 [Example 206, 4-(furo[3,2-c]pyridin-4-yl)-N-((3R,4S)-1-[5-(hydroxymethyl)pyrimidin-2-yl]-4-methoxypyrrolidin-3-yl)benzamide]",39 nM
24,"O=C(NCc1ccccc1Cl)c1ccc(-c2nccc3[nH]ccc23)cc1 [Example 56, N-(2-chlorobenzyl)-4-(1H-pyrrolo[3,2-c]pyridin-4-yl)benzamide]",1.7 nM

# Results, then the compound that gave them:
row,IC50,Structure (SMILES)
1,1.5 nM,"Cc1ccnc(N2CCC(NC(=O)c3ccc(-c4nccc5occc45)cc3)CC2)n1 [Example 155, 4-(furo[3,2-c]pyridin-4-yl)-N-[1-(4-methylpyrimidin-2-yl)piperidin-4-yl]benzamide]"
2,1.1 nM,"Cn1cnc(CO)c1N1CCC(NC(=O)c2ccc(-c3nccc4occc34)cc2)CC1 [Example 253, 4-(furo[3,2-c]pyridin-4-yl)-N-{1-[4-(hydroxymethyl)-1-methyl-1H-imidazol-5-yl]piperidin-4-yl}benzamide]"
3,1 nM,"O=C(N[C@H]1CCN(c2ncc(CO)cn2)C1)c1ccc(-c2nccc3occc23)cc1 [Example 193, (S)-4-(furo[3,2-c]pyridin-4-yl)-N-{1-[5-(hydroxymethyl)pyrimidin-2-yl]pyrrolidin-3-yl}benzamide]"
4,1.7 nM,"Cn1c(N2CCC(NC(=O)c3ccc(-c4nccc5occc45)cc3)CC2)nccc1=O [Example 183, 4-(furo[3,2-c]pyridin-4-yl)-N-[1-(1-methyl-6-oxo-1,6-dihydropyrimidin-2-yl)piperidin-4-yl]benzamide]"
5,1.8 nM,"O=C(NC1CCN(c2ccncc2)CC1)c1ccc(-c2nccc3occc23)cc1 [Example 123, 4-(furo[3,2-c]pyridin-4-yl)-N-[1-(pyridin-4-yl)piperidin-4-yl]benzamide]"
6,3 nM,"O=C(NC1CCN(c2ccc(CO)cn2)CC1)c1ccc(-c2nccc3occc23)cc1 [Example 169, 4-(furo[3,2-c]pyridin-4-yl)-N-{1-[5-(hydroxymethyl)pyridin-2-yl]piperidin-4-yl}benzamide]"
7,2.3 nM,"N#CN1CCC(NC(=O)c2ccc(-c3nccc4occc34)cc2)CC1 [Example 247, N-(1-cyanopiperidin-4-yl)-4-(furo[3,2-c]pyridin-4-yl)benzamide]"
8,1.3 nM,"O=C(NC1CCN(c2ccnc(F)c2)CC1)c1ccc(-c2nccc3occc23)cc1 [Example 159, N-[1-(2-fluoropyridin-4-yl)piperidin-4-yl]-4-(furo[3,2-c]pyridin-4-yl)benzamide]"
9,0.83 nM,"N#Cc1cnc(N2CCC(NC(=O)c3ccc(-c4nccc5occc45)cc3)CC2)nc1 [Example 173, N-[1-(5-cyanopyrimidin-2-yl)piperidin-4-yl]-4-(furo[3,2-c]pyridin-4-yl)benzamide]"
10,2 nM,"CO[C@H]1CC[C@H](NC(=O)c2ccc(-c3nccc4occc34)cc2)CC1 [Example 285, 4-(furo[3,2-c]pyridin-4-yl)-N-(trans-4-methoxycyclohexyl)benzamide]"
11,4.4 nM,"O=C(NC1CCN(c2nn[nH]n2)CC1)c1ccc(-c2nccc3occc23)cc1 [Example 248, N-[1-(1H-tetrazol-5-yl)piperidin-4-yl]-4-(furo[3,2-c]pyridin-4-yl)benzamide]"
12,1.5 nM,"O=C(N[C@H]1CCN(c2ccncn2)C1)c1ccc(-c2nccc3occc23)cc1 [Example 229, (S)-4-(furo[3,2-c]pyridin-4-yl)-N-[1-(pyrimidin-4-yl)pyrrolidin-3-yl]benzamide]"
13,1 nM,"O=C(NC1CCN(c2cccc(F)n2)CC1)c1ccc(-c2nccc3occc23)cc1 [Example 147, N-[1-(6-fluoropyridin-2-yl)piperidin-4-yl]-4-(furo[3,2-c]pyridin-4-yl)benzamide]"
14,0.97 nM,"O=C(NC1CCN(c2nccc(=O)[nH]2)CC1)c1ccc(-c2nccc3occc23)cc1 [Example 179, 4-(furo[3,2-c]pyridin-4-yl)-N-[1-(6-oxo-1,6-dihydropyrimidin-2-yl)piperidin-4-yl]benzamide]"
15,2 nM,"Cn1ccnc1N1CCC(NC(=O)c2ccc(-c3nccc4occc34)cc2)CC1 [Example 251, 4-(furo[3,2-c]pyridin-4-yl)-N-[1-(1-methyl-1H-imidazol-2-yl)piperidin-4-yl]benzamide]"
16,0.96 nM,"O=C(NC1CCN(CC(F)(F)F)CC1)c1ccc(-c2nccc3occc23)cc1 [Example 180, 4-(furo[3,2-c]pyridin-4-yl)-N-[1-(2,2,2-trifluoroethyl)piperidin-4-yl]benzamide]"
